Results on 43 molecules are retold here after US8293734B2, “Nitroimidazooxazine and nitroimidazooxazole analogues and their uses” (priority 2009, dated 2012).

SMILES strings stand for the structures.

Molecule `O=[N+]([O-])c1cn2c(n1)OCC(COc1ccc(-c3ccc(OC(F)(F)F)cc3)nc1)C2` (stereo not shown) had a melting point of 180 to 181 °C. Turning to `CC1(COc2ccc(-c3ccc(OC(F)(F)F)cc3)cn2)Cn2cc([N+](=O)[O-])nc2O1` (stereo not shown), the melting point was in the range of 172 to 174 °C. `O=[N+]([O-])c1cn2c(n1)OC(COc1ccc(-c3ccc(OC(F)(F)F)cc3)cn1)CC2` (stereo not shown) had a melting point of 161 to 163 °C. As for `O=[N+]([O-])c1cn2c(n1)OC(COc1ccc(-c3ccc(C(F)(F)F)cc3)cc1)C2` (stereo not shown), the melting point lay in the range of 210 to 211 °C.

Take `CC1(COc2ccc(-c3ccc(OC(F)(F)F)cc3)nc2)Cn2cc([N+](=O)[O-])nc2O1` (stereo not shown): the melting point lay in the range of 209 to 211 °C. For `O=[N+]([O-])c1cn2c(n1)OCC(COc1ccc(-c3ccc(C(F)(F)F)cc3)cc1)C2` (stereo not shown), the melting point was in the range of 218 to 221 °C. Next, `O=[N+]([O-])c1cn2c(n1)OCC(COc1ccc(-c3ccc(F)cc3)nc1)C2` (stereo not shown): 214 to 216 °C; `CC1(COc2ccc(-c3ccc(OC(F)(F)F)cc3)cn2)CCn2cc([N+](=O)[O-])nc2O1` (stereo not shown): 195 to 198 °C. The molecule `CC1(COCc2ccc(OC(F)(F)F)cc2)CCn2cc([N+](=O)[O-])nc2O1` (stereo not shown) displayed a melting point of 100 to 101 °C. Next, `CC1(COc2cnc(-c3ccc(F)cc3)cn2)Cn2cc([N+](=O)[O-])nc2O1` (stereo not shown): 200 to 201 °C; `CC1(COc2ccc(-c3ccc(F)cc3)cn2)Cn2cc([N+](=O)[O-])nc2O1` (stereo not shown): 162 to 164 °C. Next, `O=[N+]([O-])c1cn2c(n1)OCC(COc1ccc(-c3ccc(F)cc3)cn1)C2` (stereo not shown): 160 to 161 °C. For `CC1(COc2ncc(-c3ccc(F)cc3)cn2)Cn2cc([N+](=O)[O-])nc2O1` (stereo not shown), the melting point was 196 °C (dec.).

On to `O=[N+]([O-])c1cn2c(n1)OC(COc1ccc(OCc3ccccc3)cc1)CC2` (stereo not shown) (hydrate or solvate), for which the melting point fell in the range of 222 to 224 °C. For the molecule `O=[N+]([O-])c1cn2c(n1)OCC(COc1ccc(-c3ccc(OC(F)(F)F)cc3)cn1)C2` (stereo not shown), the melting point was 182 to 183 °C. Next, `O=[N+]([O-])c1cn2c(n1)OCC(COc1ccc(-c3ccc(F)cc3)cc1)C2` (stereo not shown): 201 to 203 °C; `CC1(COc2ncc(-c3ccc(OC(F)(F)F)cc3)cn2)Cn2cc([N+](=O)[O-])nc2O1` (stereo not shown): 227 °C (dec.). Take `O=[N+]([O-])c1cn2c(n1)OC(COCc1ccc(OCc3ccccc3)cc1)C2` (stereo not shown): the melting point lay in the range of 123 to 124 °C. Next, `CC1(COc2ccc(-c3ccc(F)cc3)nc2)Cn2cc([N+](=O)[O-])nc2O1` (stereo not shown): 180 to 181 °C; `CC1(COCc2cccc(OC(F)(F)F)c2)CCn2cc([N+](=O)[O-])nc2O1` (stereo not shown): 108 to 110 °C; `O=[N+]([O-])c1cn2c(n1)OC(COc1ccc(-c3ccc(C(F)(F)F)cc3)cc1)CC2` (stereo not shown): 242 to 245 °C.

Molecule `CC1(COc2cnc(-c3ccc(OC(F)(F)F)cc3)nc2)Cn2cc([N+](=O)[O-])nc2O1` (stereo not shown) showed a melting point of 223 to 225 °C. Next, `O=[N+]([O-])c1cn2c(n1)OC(COc1ccc(OC(F)(F)F)cc1)C2` (stereo not shown): 170 to 172 °C. Then `O=[N+]([O-])c1cn2c(n1)OC(COc1ccc(-c3ccc(OC(F)(F)F)cc3)cc1)C2` (stereo not shown), with 200 to 201 °C; and `CC1(COc2cnc(-c3ccc(F)cc3)nc2)Cn2cc([N+](=O)[O-])nc2O1` (stereo not shown), with 201 to 203 °C. Next, `O=[N+]([O-])c1cn2c(n1)OC[C@@H](COc1ccc(OC(F)(F)F)cc1)C2`: 138 to 139 °C; `CC1(COc2ccc(-c3ccc(C(F)(F)F)cc3)cc2)CCn2cc([N+](=O)[O-])nc2O1` (stereo not shown): 196 to 198 °C; `CC1(COc2ccc(-c3ccc(F)cc3)cc2)CCn2cc([N+](=O)[O-])nc2O1` (stereo not shown): 160 to 162 °C. As to `O=[N+]([O-])c1cn2c(n1)OCC(COc1ccc(OC(F)(F)F)cc1)C2` (racemic), the melting point fell in the range of 141 to 143 °C.

For the molecule `O=[N+]([O-])c1cn2c(n1)OC[C@H](COc1ccc(OC(F)(F)F)cc1)C2`, the melting point was in the range of 139 to 140 °C. With `O=[N+]([O-])c1cn2c(n1)OCC(COc1ccc(-c3ccc(C(F)(F)F)cc3)nc1)C2` (stereo not shown), the melting point lay in the range of 233 to 235 °C. As for `O=[N+]([O-])c1cn2c(n1)OCC(COc1ccc(-c3ccc(OC(F)(F)F)cc3)cc1)C2` (stereo not shown), the melting point was in the range of 192 to 194 °C. Next, `O=[N+]([O-])c1cn2c(n1)OC(COc1ccc(-c3ccc(OC(F)(F)F)cc3)cn1)C2` (stereo not shown): 127 to 130 °C; `O=[N+]([O-])c1cn2c(n1)OC(COc1ccc(OCc3ccccc3)cc1)C2` (stereo not shown): 208 to 210 °C; `O=[N+]([O-])c1cn2c(n1)OC(COc1ccc(-c3ccc(F)cc3)cc1)C2` (stereo not shown): 224 to 226 °C.

In turn, `CC1(COCc2cccc(-c3ccc(OC(F)(F)F)cc3)c2)CCn2cc([N+](=O)[O-])nc2O1` (stereo not shown) displayed a melting point of 80 to 82 °C.

In turn, `CC1(COc2ccc(OCc3ccccc3)cc2)CCn2cc([N+](=O)[O-])nc2O1` (stereo not shown) displayed a melting point of 174 to 176 °C.

Molecule `CC1(COc2ccc(-c3ccc(OC(F)(F)F)cc3)nc2)CCn2cc([N+](=O)[O-])nc2O1` (stereo not shown) had a melting point of 202 to 203 °C. Turning to `CC1(COc2ccc(-c3ccc(C(F)(F)F)cc3)nc2)CCn2cc([N+](=O)[O-])nc2O1` (stereo not shown), the melting point lay within 215 to 217 °C. Then `O=[N+]([O-])c1cn2c(n1)OC(COCc1ccc(OC(F)(F)F)cc1)C2` (stereo not shown), with 134 to 135 °C. For `CC1(COc2cnc(-c3ccc(OC(F)(F)F)cc3)cn2)Cn2cc([N+](=O)[O-])nc2O1` (stereo not shown), the melting point lay within 222 to 224 °C. Then `CC1(COc2ccc(-c3ccc(C(F)(F)F)cc3)cn2)CCn2cc([N+](=O)[O-])nc2O1` (stereo not shown), with 212 to 214 °C; and `O=[N+]([O-])c1cn2c(n1)OCC(COc1ccc(-c3ccc(C(F)(F)F)cc3)cn1)C2` (stereo not shown), with 180 to 182 °C.

Usually melting point stands for the temperature of the solid-liquid transition.
